Source: the NIST ThermoML archive (doi:10.1016/j.tca.2015.02.020)

Assay: molar heat capacity at constant pressure; xn = mol fraction of the nth substance listed
Settings: 101 kPa, Liquid, Small sample (50 mg) DSC

NCCO [2-aminoethan-1-ol] + O
Settings | molar heat capacity at constant pressure [J/K/mol]
207.9 K, x1 = 0.73 | 113.75
210.55 K, x1 = 0.19 | 71
211.06 K, x1 = 0.31 | 79.98
211.07 K, x1 = 0.23 | 73.71
212.29 K, x1 = 0.23 | 70.92
212.29 K, x1 = 0.31 | 77.16
212.64 K, x1 = 0.73 | 114.74
214.38 K, x1 = 0.23 | 74.55
214.38 K, x1 = 0.31 | 80.61
215.29 K, x1 = 0.19 | 72.31
217.03 K, x1 = 0.23 | 72.04
217.03 K, x1 = 0.31 | 78.1
217.38 K, x1 = 0.73 | 115.23
220.03 K, x1 = 0.19 | 73.62
221.01 K, x1 = 0.31 | 81.87
221.76 K, x1 = 0.23 | 73.15
221.77 K, x1 = 0.31 | 79.36
222.11 K, x1 = 0.73 | 115.72
224.33 K, x1 = 0.31 | 82.81
224.77 K, x1 = 0.19 | 74.66
226.51 K, x1 = 0.23 | 74.27
226.52 K, x1 = 0.31 | 80.3
226.86 K, x1 = 0.73 | 116.22
229.51 K, x1 = 0.19 | 75.97
230.97 K, x1 = 0.23 | 80.69
230.97 K, x1 = 0.31 | 84.38
231.24 K, x1 = 0.23 | 75.67
231.25 K, x1 = 0.31 | 81.24
231.6 K, x1 = 0.73 | 116.22
234.25 K, x1 = 0.19 | 77.02
234.28 K, x1 = 0.31 | 85.32
234.29 K, x1 = 0.23 | 81.25
235.99 K, x1 = 0.23 | 76.78
236 K, x1 = 0.31 | 82.81
236.34 K, x1 = 0.73 | 116.71
238.99 K, x1 = 0.19 | 78.07
240.72 K, x1 = 0.23 | 78.18
240.73 K, x1 = 0.31 | 84.06
240.93 K, x1 = 0.23 | 82.93
240.93 K, x1 = 0.31 | 87.2
241.08 K, x1 = 0.73 | 118.2
241.4 K, x1 = 0.19 | 78.86
243.73 K, x1 = 0.19 | 79.12
244.25 K, x1 = 0.23 | 84.04
244.25 K, x1 = 0.31 | 88.14
244.73 K, x1 = 0.19 | 80.17
245.47 K, x1 = 0.23 | 79.57
245.47 K, x1 = 0.31 | 85.63
245.83 K, x1 = 0.73 | 120.18
247.57 K, x1 = 0.23 | 85.16
247.57 K, x1 = 0.31 | 89.08
247.58 K, x1 = 0.19 | 81.21
248.48 K, x1 = 0.19 | 80.17
250.22 K, x1 = 0.23 | 80.69
250.23 K, x1 = 0.31 | 86.57
250.58 K, x1 = 0.73 | 122.15
250.9 K, x1 = 0.23 | 86.28
250.9 K, x1 = 0.31 | 90.02
251.37 K, x1 = 0.19 | 82.79
253.23 K, x1 = 0.19 | 80.95
254.22 K, x1 = 0.31 | 91.28
254.23 K, x1 = 0.23 | 87.11
254.7 K, x1 = 0.19 | 84.1
254.97 K, x1 = 0.23 | 82.37
254.98 K, x1 = 0.31 | 88.14
255.33 K, x1 = 0.73 | 124.13
257.98 K, x1 = 0.19 | 81.74
259.72 K, x1 = 0.23 | 83.48
259.72 K, x1 = 0.31 | 89.39
260.08 K, x1 = 0.73 | 126.11
260.88 K, x1 = 0.23 | 89.07
260.88 K, x1 = 0.31 | 93.16
261.35 K, x1 = 0.19 | 86.45
262.73 K, x1 = 0.19 | 82.79
264.2 K, x1 = 0.23 | 90.18
264.2 K, x1 = 0.31 | 94.1
264.47 K, x1 = 0.23 | 84.88
264.48 K, x1 = 0.31 | 90.96
264.67 K, x1 = 0.19 | 87.5
264.83 K, x1 = 0.73 | 128.09
267.48 K, x1 = 0.19 | 83.57
269.23 K, x1 = 0.23 | 86.28
269.23 K, x1 = 0.31 | 92.22
269.58 K, x1 = 0.73 | 130.07
270.7 K, x1 = 0.73 | 140.45
270.86 K, x1 = 0.23 | 91.58
270.86 K, x1 = 0.31 | 95.98
271.34 K, x1 = 0.19 | 89.86
272.24 K, x1 = 0.19 | 84.36
274.02 K, x1 = 0.23 | 87.67
274.02 K, x1 = 0.31 | 93.79
274.07 K, x1 = 0.73 | 140.95
274.23 K, x1 = 0.23 | 92.42
274.23 K, x1 = 0.31 | 96.61
274.39 K, x1 = 0.73 | 132.04
274.73 K, x1 = 0.19 | 90.65
277.12 K, x1 = 0.19 | 84.88
278.94 K, x1 = 0.23 | 88.79
278.94 K, x1 = 0.31 | 95.04
279.3 K, x1 = 0.73 | 133.53
280.95 K, x1 = 0.73 | 141.44
281.11 K, x1 = 0.23 | 93.26
281.11 K, x1 = 0.31 | 97.86
281.61 K, x1 = 0.19 | 91.69
282.05 K, x1 = 0.19 | 85.67
283.85 K, x1 = 0.23 | 89.91
283.85 K, x1 = 0.31 | 96.29
284.22 K, x1 = 0.73 | 134.02
284.4 K, x1 = 0.73 | 141.44
284.56 K, x1 = 0.23 | 93.26
284.56 K, x1 = 0.31 | 97.86
285.05 K, x1 = 0.19 | 91.96
